Measured values taken from patent US5902789A, “Nasal administration of drugs” (Fisons Corporation, priority 1995, dated 1999).

How the values were obtained:
[1] = cited from earlier work
[2] = Example II irritation studies of nasal spray solutions without insulin (10 days); assay type: in vivo, human; conditions: longer than 5 days, polysorbate-80 added to nasal spray solution
Protocol: Chronic irritation studies, i.e., longer than 5 days, using polysorbate-80 according to the present invention have also been carried out.
Studies were carried out to determine the effect on nasal irritation of the addition of varying amounts of polysorbate-80 to nasal spray solutions containing N-9. […] In each study ten normal subjects were treated with one squirt (about 0.15 ml) of the nasal spray solution three times a day for ten consecutive days. After administration, the subjects were questioned about any symptoms and findings recorded. The nasal passages were examined on the fifth and tenth days of treatment by an ENT ([…], nose and throat) specialist and findings recorded.
The nasal spray solutions used in the study comprised 1% of a mixture of polysorbate-80:N-9, 1:9, wt:wt; 0.5% of a mixture of polysorbate-80:N-9, 1:9, wt:wt; 0.25% of a mixture of polysorbate-80:N-9, 1:9, wt:wt; 1% of a mixture of polysorbate-80:N-9, 1:3, wt:wt; 0.5% of a mixture of polysorbate-80:N-9, 1:3, wt:wt; 0.25% of a mixture of polysorbate-80:N-9, 1:3, wt:wt; 0.1% N-9 or a saline placebo. All of the nasal spray solutions produced minor changes in nasal mucosa and minor symptomatic complaints but the number encountered with 0.5% P-80:N-9, 1:9, and 0.5% P-80:N-9:1:3 (4 out of 10 subjects in each group) most closely paralleled the saline placebo (7 out of 20 subjects).

Row | Substance | promotion of insulin absorption ([1]; 0.1% laureth-9, nasally) | absorption of nasally administered insulin ([1]; humans) | tolerability of nasal administration ([1]; laureth-9 at 0.1% by weight, nasally) | nasal irritation accompanying administration ([1]; nasally administered insulin in humans, effects proportional to laureth-9 concentration) | chronic irritation [2]
1 | laureth-9 | only moderately effective | enhanced absorption | tolerated by all subjects tested | often accompanied by nasal irritation such as stinging, congestion and rhinorrhea | –
2 | polysorbate-80 | – | – | – | – | reduces chronic irritation
